Where “and” joins values, the source holds several entries; their conditions need not be identical. Identical values can stand only once. Like-named read-outs stand apart in the source and are kept apart here.
Tests used:
[1] = biological target: T1, USPSa-WT (Staphylococcus aureus, UniProt A0A7U7EVR3); experiment: biochemical; type: binding; settings: for Kd: Dissociation Constant (KD) ± Standard Deviation, changes in initial fluorescence
Experimental: For labeling, the proteins were diluted to a concentration of 800 nM in binding buffer (50 mM potassium phosphate, pH 8.0, 800 mM NaCl, and 0.05% Tween 20), mixed with an equal volume of RED-Tris-NTA dye (80 nM), and incubated on ice in the dark for 30 min. […] The labeled proteins and the ligand dilutions were then mixed in a 1:1 ratio and incubated on ice in the dark for 30 min.
The samples were then loaded into Monolith standard-treated capillaries in triplicate, and the changes in fluorescence were measured with 40% LED power and 20% IR-laser power for an on-time of 20-s at 23 °C. To determine the binding affinity, the ligand-dependent changes in the intensity of the initial fluorescence, or the thermophoretic mobility, were analyzed according to the law of mass action in a standard fitting mode of MO.Affinity analysis software (version 2.3). To exclude the possibility of nonspecific binding of the ligand to the His6-tag (on USPSa) or ligand-induced USP adsorption to labware or due to aggregation, we performed His6-peptide and EDTA tests, respectively ([91]). […] In the EDTA test, the binding buffer additionally contained 50 mM EDTA to disrupt the interaction between His6-USP and the RED-Tris-NTA dye.

[2] = system: USPSa-S244A; experiment: MicroScale Thermophoresis (initial fluorescence change) nucleotide binding; design: species or system Staphylococcus aureus; settings: S244A mutant; for Dissociation Constant (KD) ± Standard Deviation: MST, initial fluorescence
Experimental: (§1) The ligand-binding specificity of USPSa, the role of USPSa residues in c-di-AMP binding, and the c-di-AMP binding affinity of USP homologs were biochemically determined by MST, using purified WT and mutant proteins. […] For these MST experiments, WT and active-site mutants of His6-USPSa were first fluorescently labeled using a RED-Tris NTA Monolith His-Tag labeling kit (Nanotemper, Technologies, Inc). For labeling, the proteins were diluted to a concentration of 800 nM in binding buffer (50 mM potassium phosphate, pH 8.0, 800 mM NaCl, and 0.05% Tween 20), mixed with an equal volume of RED-Tris-NTA dye (80 nM), and incubated on ice in the dark for 30 min. The stock solutions of ligands (c-di-AMP, c-di-GMP, ATP, AMP, c-AMP) were serially diluted with the binding buffer in a 1:1 ratio during each dilution step. The labeled proteins and the ligand dilutions were then mixed in a 1:1 ratio and incubated on ice in the dark for 30 min.
(§2) The samples were then loaded into Monolith standard-treated capillaries in triplicate, and the changes in fluorescence were measured with 40% LED power and 20% IR-laser power for an on-time of 20-s at 23 °C. To determine the binding affinity, the ligand-dependent changes in the intensity of the initial fluorescence, or the thermophoretic mobility, were analyzed according to the law of mass action in a standard fitting mode of MO.Affinity analysis software (version 2.3). To exclude the possibility of nonspecific binding of the ligand to the His6-tag (on USPSa) or ligand-induced USP adsorption to labware or due to aggregation, we performed His6-peptide and EDTA tests, respectively ([91]). In the His6-peptide test, a control His6-peptide was used instead of USP in the binding assay described above, and if no change in initial fluorescence occurred, this confirmed the USP-specific binding of ligands. In the EDTA test, the binding buffer additionally contained 50 mM EDTA to disrupt the interaction between His6-USP and the RED-Tris-NTA dye. The complete loss of the ligand-induced initial fluorescence change in this assay confirmed that this change was neither because of protein aggregation nor because of protein adsorption to labware.
(§3) The Ka values of WT USPSa for c-di-AMP or AMP were set to 100% relative affinity, and the binding affinities of the other nucleotides (Fig. 1C), or USPSa mutants (Fig. 4E), or USP homologs (Fig. 6, B and C) were depicted as percent values compared with the values of the WT USPSa.

[3] = biological target: T2, USPSa-A242G (Staphylococcus aureus, UniProt A0A7U7EVR3, A242G); experiment: as above; settings: for Kd: MST, initial fluorescence, read-out: Dissociation Constant (KD) ± Standard Deviation
T2 sequence (A0A7U7EVR3 213-364 A242G): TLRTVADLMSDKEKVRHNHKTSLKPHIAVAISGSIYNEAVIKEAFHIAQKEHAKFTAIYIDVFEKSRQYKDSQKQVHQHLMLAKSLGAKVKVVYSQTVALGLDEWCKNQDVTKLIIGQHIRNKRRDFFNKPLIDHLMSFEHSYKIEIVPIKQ
Experimental: as §1, §2, §3

[4] = biological target: T3, USPSa-H331A (Staphylococcus aureus, UniProt A0A7U7EVR3, H331A); experiment: as above; settings: for Kd: H331A mutant, MST, initial fluorescence, read-out: Dissociation Constant (KD) ± Standard Deviation
T3 sequence (A0A7U7EVR3 213-364 H331A): T2 sequence (A0A7U7EVR3 213-364 A242G)
Experimental: as §1, §2, §3

[5] = biological target: USPSa-K282A (Staphylococcus aureus, UniProt A0A7U7EVR3, K282A); experiment: as above; settings: K282A mutant, MST, read-out: Dissociation Constant (KD) ± Standard Deviation
Experimental: as §1, §2, §3

[6] = biological target: T4, USPSa-L344A (Staphylococcus aureus, UniProt A0A7U7EVR3, L344A); experiment: as above; settings: L344A mutant; for Kd: MST, initial fluorescence, read-out: Dissociation Constant (KD) ± Standard Deviation
T4 sequence (A0A7U7EVR3 213-364 L344A): T2 sequence (A0A7U7EVR3 213-364 A242G)
Experimental: as §1, §2, §3

[7] = biological target: T5, USPSa-N249A (Staphylococcus aureus, UniProt A0A7U7EVR3, N249A); experiment: as above; settings: N249A mutant; for Kd: MST, initial fluorescence, read-out: Dissociation Constant (KD) ± Standard Deviation
T5 sequence (A0A7U7EVR3 213-364 N249A): T2 sequence (A0A7U7EVR3 213-364 A242G)
Experimental: as §1, §2, §3

[8] = biological target: USPSa-Q280A (Staphylococcus aureus, UniProt A0A7U7EVR3, Q280A); experiment: as above; settings: Q280A mutant, MST, read-out: Dissociation Constant (KD) ± Standard Deviation
Experimental: as §1, §2, §3

[9] = biological target: T6, USPSa-S244D (Staphylococcus aureus, UniProt A0A7U7EVR3, S244D); experiment: as above; settings: S244D mutant
T6 sequence (A0A7U7EVR3 213-364 S244D): T2 sequence (A0A7U7EVR3 213-364 A242G)
Experimental: as §1, §2, §3

[10] = biological target: T7, USPSa-S246A (Staphylococcus aureus, UniProt A0A7U7EVR3, S246A); experiment: as above; settings: S246A mutant; for Kd: MST, initial fluorescence, read-out: Dissociation Constant (KD) ± Standard Deviation
T7 sequence (A0A7U7EVR3 213-364 S246A): T2 sequence (A0A7U7EVR3 213-364 A242G)
Experimental: as §1, §2, §3

[11] = biological target: T8, USPSa-Y248A (Staphylococcus aureus, UniProt A0A7U7EVR3, Y248A); experiment: as above; settings: Y248A mutant; for Kd: MST, initial fluorescence, read-out: Dissociation Constant (KD) ± Standard Deviation
T8 sequence (A0A7U7EVR3 213-364 Y248A): T2 sequence (A0A7U7EVR3 213-364 A242G)
Experimental: as §1, §2, §3

[12] = biological target: T9, USPSa-Y281F (Staphylococcus aureus, UniProt A0A7U7EVR3, Y281F); experiment: as above; settings: Y281F mutant; for Kd: MST, initial fluorescence, read-out: Dissociation Constant (KD) ± Standard Deviation
T9 sequence (A0A7U7EVR3 213-364 Y281F): T2 sequence (A0A7U7EVR3 213-364 A242G)
Experimental: as §1, §2, §3

[13] = biological target: T10, USPSa-K277A (Staphylococcus aureus, UniProt A0A7U7EVR3, K277A); experiment: MicroScale Thermophoresis (thermophoretic mobility change) nucleotide binding; settings: K277A mutant; for Kd: MST, change in thermophoretic mobility, read-out: Dissociation Constant (KD) ± Standard Deviation
T10 sequence (A0A7U7EVR3 213-364 K277A): T2 sequence (A0A7U7EVR3 213-364 A242G)
Experimental: as §1, §2, §3

[14] = biological target: USPSa-R279A (Staphylococcus aureus, UniProt A0A7U7EVR3, R279A); experiment: as above; settings: R279A mutant; MST, change in thermophoretic mobility; read-out: Dissociation Constant (KD) ± Standard Deviation
Experimental: as §1, §2, §3

[15] = biological target: T1, USPSa-WT; experiment: as above; settings: MST, change in thermophoretic mobility, read-out: Dissociation Constant (KD) ± Standard Deviation
Experimental: as §1, §2, §3

[16] = biological target: USPSa-V310A (Staphylococcus aureus, UniProt A0A7U7EVR3, V310A); experiment: MicroScale Thermophoresis (initial fluorescence change) nucleotide binding; settings: V310A mutant, MST, read-out: Dissociation Constant (KD) ± Standard Deviation
Experimental: as §1, §2, §3

[17] = biological target: USPSa2-WT (Staphylococcus aureus, UniProt Q5HK61); experiment: biochemical; type: binding; settings: MST, change in thermophoretic mobility, read-out: Dissociation Constant (KD) ± Standard Deviation
[18] = biological target: USPSp-WT; type: binding, Streptococcus pneumoniae; settings: MST, change in thermophoretic mobility, read-out: Dissociation Constant (KD) ± Standard Deviation
[19] = biological target: T11, USPMtb-WT (Mycobacterium tuberculosis, UniProt P9WGL3); experiment: biochemical; type: binding
T11 construct: made in house; host or cells: E. coli C41 (DE3), pTB146, no KdpE co-expression

[20] = system: untagged USPSa; experiment: fluorescence-based thermal shift (ThermoFluor) assay; type: binding, Staphylococcus aureus; settings: 7.5-fold molar excess of c-di-AMP; purified untagged USPSa
Experimental: The plates were then sealed with Microseal “B” Seal Seals (Bio-Rad Laboratories) and heated in a CFX96 real-time PCR system (Bio-Rad Laboratories) from 25 °C to 99 °C in increments of 0.5 °C. Fluorescence changes in the plate wells were monitored simultaneously with a charge-coupled device camera, utilizing excitation and emission wavelengths of 497 nm and 520 nm, respectively.

[21] = biological target: maltose-binding protein–tagged USP; settings: differential radial capillary action of ligand assay, read-out: previously reported KD; cited from earlier work
[22] = system: maltose-binding protein–tagged version of the USPSa Y271A mutant; design: method as in PMID 26195599; settings: cited from earlier work
[23] = Ka relative to WT USPSa set to 100%

SMILES | Kd ([1]; His6-USPSa WT, MST) | binding in MST analysis (in words) [2] | Dissociation Constant (KD) ± Standard Deviation [2] | Kd ([3]; A242G mutant) | Kd [4] | Kd [5] | Kd [6] | Kd [7] | Kd [8] | Kd [10] | Kd [11] | Kd [12] | Kd [13] | Kd [14] | Kd [15] | further results
Nc1ncnc2c1ncn2[C@@H]1O[C@H](COP(=O)(O)OP(=O)(O)OP(=O)(O)O)[C@@H](O)[C@H]1O [ATP, adenosine triphosphate] | 5150 ± 70 µM |  |  |  |  |  |  |  |  |  |  |  |  |  |  | binding affinity, fold lower than that of c-di-AMP [1]: > 5000 fold
Nc1ncnc2c1ncn2[C@@H]1O[C@H](COP(=O)(O)O)[C@@H](O)[C@H]1O [AMP] | 2650 ± 1160 µM | did not bind | No Binding Observed | 140 ± 10 µM | 4130 ± 110 µM | 1450 ± 640 µM | 4140 ± 900 µM | 5170 ± 3420 µM | 1820 ± 250 µM | 7250 ± 210 µM | 5400 ± 3810 µM | 5150 ± 350 µM | 50700 ± 4030 µM | 14400 ± 950 µM | 20700 ± 4400 µM | binding affinity, fold lower than that of c-di-AMP ([1]; His6-USPSa WT, MST): > 5000 fold; improvement of binding affinity versus WT USPSa ([3]; A242G mutant): ~25 fold; loss of relative binding affinity ([4]; His331 to Ala mutant, relative to WT USPSa): ~60%; relative affinity [6, 23]: 40%; relative binding affinity [9, 23]: ~50%; Kd ([9]; MST, initial fluorescence, read-out: Dissociation Constant (KD) ± Standard Deviation): 4060 ± 1940 µM; relative binding affinity [10, 23]: ~40%; relative affinity [11, 23]: ~60%; binding relative to WT USPSa [12, 23]: ~30%; relative binding affinity [13, 23]: ~45%
Nc1ncnc2c1ncn2[C@@H]1O[C@@H]2COP(=O)(O)O[C@H]3[C@@H](O)[C@H](n4cnc5c(N)ncnc54)O[C@@H]3COP(=O)(O)O[C@H]2[C@H]1O [c-di-AMP, cyclic-di-adenosine monophosphate] | 0.5 µM and 0.53 µM | complete loss | No Binding Observed | 0.01 ± 0.01 µM | 2.37 ± 1.32 µM | 0.6 ± 0.24 µM | 8.84 ± 1.09 µM | 7.84 ± 0.34 µM | 0.87 ± 0.06 µM | 1.3 ± 0.19 µM | 4.22 ± 0.11 µM | 1.79 ± 0.84 µM | 10.1 ± 0.24 µM | 8.67 ± 0.75 µM | 3.13 ± 0.75 µM | improvement of binding affinity versus WT USPSa [3]: ~50 fold; binding affinity versus WT USPSa (in words) [7]: significant reduction; binding (in words) [9]: completely abolished; Dissociation Constant (KD) ± Standard Deviation ([9]; MST, initial fluorescence): No Binding Observed; Kd [16]: 1.71 ± 0.42 µM; Kd [17]: 125 ± 15 µM; Kd [18]: 67.5 ± 13 µM; Kd [19]: 666 ± 168 µM; increase of melting temperature of USPSa [20]: 10 °C; Kd [21]: 2 ± 0.18 µM; c-di-AMP binding in vitro (in words) [22]: deficient in c-di-AMP binding
